Measured values: ChEMBL document CHEMBL4229401, “Synthesis and evaluation of a ring-constrained Hsp90 C-terminal inhibitor that exhibits neuroprotective activity” (Bioorg Med Chem Lett, 2018)
Activity calls are given as the source filed them. The rule behind the calls is not given here.

Experiments:
Rattus norvegicus [1] = species on record: Rattus norvegicus; experiment: Inhibition of C-terminal Hsp90 in rat 50B11 cells assessed as increase in Hsp70 expression at 0.1 to 1 uM after 24 hrs by Western blot analysis; type: cell-based
Rattus norvegicus [2] = species on record: Rattus norvegicus; experiment: Neuroprotective activity against H2O2-induced mitochondrial dysfunction in rat 50B11 cells assessed as improvement in mitochondrial biogenesis by measuring increase in maximal respiratory capacity pretreated for 24 hrs followed by H2O2 challenge and measured after 2 hrs; type: functional, cell-based

Row | SMILES | inhibition (Rattus norvegicus [1]) | Activity (Rattus norvegicus [2])
1 | CO[C@@H]1[C@@H](O)[C@@H](O)[C@H](Oc2ccc(CCNC(C)=O)c(-c3cccc(F)c3)c2)OC1(C)C | Active | Dose-dependent effect
2 | CO[C@@H]1[C@@H](O)[C@@H](O)[C@H](Oc2ccc(CCNC(C)=O)c3c4cccc(F)c4c(=O)n(C)c23)OC1(C)C | Active | Dose-dependent effect
